Reference: PMC5562305, “Impact of novel palmitoylated prolactin-releasing peptide analogs on metabolic changes in mice with diet-induced obesity” (PLoS ONE, 2017)
Starred links: 1 amine or outer side, 2 acyl side, 3 side chain; linkers in the order of their positions; H or OH if unused. Residues, ends and D or L forms follow the SMILES beside them. Groups on a side chain read outwards from the residue. *: point of attachment. TTDA(Palmitoyl) = CCCCCCCCCCCCCCCC(=O)NCCCOCCOCCOCCCN*; Suc = O=C(CCC(=O)[*:2])[*:1]

Tested on: urinary metabolites
Assay: NMR-based metabolomics of urine of DIO mice
Assay type: in vivo, C57BL/6 mice
Set-up: key to DMA, Mean / DMG, Mean / MA, Mean / TMA, Mean / acetate, Mean / allantoin, Mean / carnitine, Mean / choline, Mean / cis-aconitate, Mean / creatine+creatinine, Mean / creatine, Mean / creatinine, Mean / ethanolamine, Mean / formate, Mean / galactose, Mean / glucose, Mean / glycine, Mean / lactate, Mean / succinate, Mean / vinylacetylglycine, Mean: TSA-normalized intensity of the metabolite's representative NMR signal
Protocol: Urine samples for NMR-based metabolomics were collected prior to the start of the interventions and at the end of the experiment. For overnight urine collection (from 5 pm to 8 am), the mice were housed in individual metabolic cages (Tecniplast, Buguggiate, Italy) without access to food. Samples were collected with the addition of NaN3 and stored at -80°C until NMR analysis.
The urine samples were thawed at room temperature and centrifuged at 13 684 x g for 5 min prior to the NMR experiments. A 200-μl aliquot of supernatant was diluted with 340 μl of H2O mixed with 60 μl of phosphate buffer (1.5 M KH2PO4 in D2O containing 2 mM NaN3 and 0.1% trimethylsilyl propionic acid (TSP), pH 7.4) and transferred to a 5-mm NMR tube. The NMR data were acquired with a 600 MHz Bruker Avance III spectrometer (Bruker BioSpin, Rheinstetten, Germany) equipped with a 5-mm TCI cryogenic probe head. All of the experiments were performed at 300 K. Automatic tuning, matching, shimming and adjusting of the 90° pulse length were performed for each sample.
As mouse urine naturally contains urinary proteins, the NMR spectra were acquired using a Carr-Purcell-Meiboom-Gill (CPMG) pulse sequence with water presaturation (Bruker pulse sequence cpmgpr1d) to eliminate the strong protein background. […] For better metabolite identification, a short J-resolved experiment with presaturation (NS = 2, SW = 16 ppm, TD = 8k, number of increments = 40, SW = 78.125 Hz in the indirect dimension, and relaxation delay = 2 s) was executed for all samples. Additional two-dimensional ^1H-^1H correlation spectroscopy (COSY) and ^1H-^13C heteronuclear multiple-quantum correlation (HMQC) experiments (Bruker pulse sequences cosygpprqf and hmqcphpr) were performed for selected samples.
The acquired data were processed using Topspin 3.2 software (Bruker BioSpin, Rheinstetten, Germany). Line broadening of 0.3 Hz was applied on free induction decays (FIDs) prior to Fourier transformation. The spectra were automatically phased, baseline corrected and referenced to the signal of TSP (0.00 ppm).
The assignment of individual metabolites was achieved by comparing the proton spectra with the spectra of pure metabolites using Chenomx NMR Suite 7.6 (Chenomx Inc., Edmonton, AB, Canada), the HMDB database and previously published metabolomic data. The identification of metabolites was supported through J-resolved and COSY experiments and, if possible, confirmed using carbon chemical shifts extracted from the HMQC spectra.
For quantitation of individual metabolites, the CPMG spectra were uniformly binned in the range of 0.10–10.00 ppm to 0.01-ppm intervals using AMIX software (Bruker BioSpin, Rheinstetten, Germany). This procedure reduced the dimensionality of the data, eliminated chemical shift variations and thus simplified the reproducible automatic quantification. Regions corresponding to water (4.60–4.90 ppm) and urea (5.60–6.00 ppm) were removed prior to analysis. As the dilutions of the original urine samples differed (due to the differences in water intake during urine collection), all of the spectra were normalized to the total spectral area (TSA). For each identified metabolite, one representative signal was chosen and then quantified as the sum of appropriate adjacent 0.01-ppm bins to cover the whole signal width. The metabolite concentration was expressed as the TSA-normalized intensity of the respective signal. For selection of an appropriate statistical method (parametric or non-parametric) the Lilliefors test of normality was performed. […] Metabolite alterations with a P < 0.05 were considered statistically significant. Statistical analysis was performed using Matlab software (“MATLAB version 8.6 (R2015b). Natick, Massachusetts: The MathWorks Inc., 2015.,” n.d.). […]

[1] = urine NMR signal, DIO mice, group mean
[2] = urine of DIO mice, NMR metabolomics, difference of analog mean vs saline mean

CCCCCCCCCCCCCCCC(=O)NCCCOCCOCCOCCCNC(=O)CCC(=O)NCCCC[C@H](NC(=O)[C@@H](NC(=O)[C@H](CCC(=O)O)NC(=O)[C@H](CCSC)NC(=O)[C@H](CO)NC(=O)[C@H](Cc1c[nH]cn1)NC(=O)[C@H](CCCNC(=N)N)NC(=O)[C@H](Cc1c[nH]cn1)NC(=O)[C@@H](NC(=O)[C@H](CCCNC(=N)N)NC(=O)[C@@H](N)CO)[C@@H](C)O)[C@@H](C)CC)C(=O)N[C@H](C(=O)N1CCC[C@H]1C(=O)N[C@@H](CC(=O)O)C(=O)N[C@H](C(=O)N[C@@H](CC(N)=O)C(=O)N1CCC[C@H]1C(=O)N[C@@H](C)C(=O)N[C@@H](Cc1c[nH]c2ccccc12)C(=O)N[C@@H](Cc1ccc(O)cc1)C(=O)N[C@@H](C)C(=O)N[C@@H](CO)C(=O)N[C@@H](CCCNC(=N)N)C(=O)NCC(=O)N[C@H](C(=O)N[C@@H](CCCNC(=N)N)C(=O)N1CCC[C@H]1C(=O)N[C@H](C(=O)NCC(=O)N[C@@H](CCCNC(=N)N)C(=O)N[C@@H](Cc1ccccc1)C(N)=O)C(C)C)[C@@H](C)CC)[C@@H](C)CC)[C@@H](C)O [analog 2] (H-SRTHRHSMEIK([Suc-TTDA(Palmitoyl)])TPDINPAWYASRGIRPVGRF-NH2; N-terminus assumed)
2-OG (2.45 ppm), Mean [1]: 11.956 | 2-OG (3.01 ppm), Mean [1]: 10.103 | 2-PY (8.33 ppm), Mean [1]: 0.992 | 3-indoxylsulfate (7.51 ppm), Mean [1]: 1.459 | 3-indoxylsulfate (7.71 ppm), Mean [1]: 0.842 | 4-PY (7.97 ppm), Mean [1]: 1.710 | 4-PY (8.55 ppm), Mean [1]: 0.484 | DMA, Mean [1]: 5.145 | DMG, Mean [1]: 1.928 | MA, Mean [1]: 2.920 | MNA (8.90 ppm), Mean [1]: 0.407 | MNA (8.97 ppm), Mean [1]: 0.391 | MNA (9.265 ppm), Mean [1]: 0.413 | MNA-Nox (7.75 ppm), Mean [1]: 0.969 | MNA-Nox (8.13 ppm), Mean [1]: 0.725 | MNA-Nox (8.49 ppm), Mean [1]: 0.458 | MNA-Nox (8.75 ppm), Mean [1]: 0.434 | N-carbamoylalanine (2.38 ppm), Mean [1]: 10.919 | N-carbamoylalanine (3.31 ppm), Mean [1]: 9.060 | N-isovalerylglycine + oxovalerate (0.92 ppm), Mean [1]: 15.384 | TMA, Mean [1]: 10.220 | acetate, Mean [1]: 4.384 | allantoin, Mean [1]: 21.272 | carnitine, Mean [1]: 6.113 | choline, Mean [1]: 2.053 | cis-aconitate, Mean [1]: 9.014 | citrate (2.55 ppm), Mean [1]: 31.737 | citrate (2.69 ppm), Mean [1]: 28.801 | creatine+creatinine, Mean [1]: 23.782 | creatine, Mean [1]: 6.742 | creatinine, Mean [1]: 11.494 | ethanolamine, Mean [1]: 7.749 | formate, Mean [1]: 0.205 | fumarate, Mean [1]: 0.167 | galactose, Mean [1]: 0.806 | glucose, Mean [1]: 3.486 | glycine, Mean [1]: 6.185 | hexanoylglycine + acids (0.88 ppm), Mean [1]: 15.251 | hippurate (7.55 ppm), Mean [1]: 4.857 | hippurate (7.64 ppm), Mean [1]: 2.465 | hippurate (7.84 ppm), Mean [1]: 5.092 | lactate, Mean [1]: 7.122 | multiplet acids (1.6 ppm), Mean [1]: 12.357 | putrescin, Mean [1]: 8.544 | succinate, Mean [1]: 12.532 | taurine (3.27 ppm), Mean [1]: 20.714 | taurine (3.43 ppm), Mean [1]: 17.197 | trigonelline (8.84 ppm), Mean [1]: 0.310 | trigonelline (9.13 ppm), Mean [1]: 0.125 | vinylacetylglycine, Mean [1]: 3.494 | 2-OG (2.45 ppm), Saline/analog % [2]: 0.017% | 2-OG (3.01 ppm), Saline/analog % [2]: -0.013% | 2-PY (8.33 ppm), Saline/analog % [2]: -0.147% | 3-indoxylsulfate (7.51 ppm), Saline/analog % [2]: 0.120% | 3-indoxylsulfate (7.71 ppm), Saline/analog % [2]: 0.094% | 4-PY (7.97 ppm), Saline/analog % [2]: -0.055% | 4-PY (8.55 ppm), Saline/analog % [2]: -0.165% | DMA, Saline/analog % [2]: 0.025% | N-carbamoylalanine (2.38 ppm), Saline/analog % [2]: 0.014% | N-carbamoylalanine (3.31 ppm), Saline/analog % [2]: -0.045% | N-isovalerylglycine + oxovalerate (0.92 ppm), Saline/analog % [2]: 0.062% | TMA, Saline/analog % [2]: -0.159% | acetate, Saline/analog % [2]: 0.167% | allantoin, Saline/analog % [2]: 0.054% | carnitine, Saline/analog % [2]: 0.027% | choline, Saline/analog % [2]: 0.042% | cis-aconitate, Saline/analog % [2]: 0.015% | citrate (2.55 ppm), Saline/analog % [2]: -0.026% | citrate (2.69 ppm), Saline/analog % [2]: -0.034% | creatine+creatinine, Saline/analog % [2]: 0.043%
